B1: SEQ ID NO:2: polypeptide encoded by SEQ ID NO:1, initially isolated from Tannerella forsythensis ATCC 43037 (protein)
chain: MEKTVTYQSEKGFSIHDVERLLLGQSHLKLSAESLQKVERCFIFLREFSTDKVIYGINTGFGPMAQYRVDDNCLKQLQYNIIRSHSTGAGEPLDPIYVKAAMIARLSTFLQGYSGIHTDLVRLLTEFINRDICPFIPEHGSVGASGDLVQLAHIALTLIGEGEVFYEGKRRPTAEVMQKEKLSPLDIYIREGLSATNGTSVMTGIGLVNLIYAKRLLHWSIAASVMMNEIASSYDDLMSPGLNATKRHEGQQEIARAMCRWAAGSKAMRKREIEMFQRHTEKVFGHKVQAYYSLRCVPQILGPIWDTMAYAEKVLVDELNSACDNPIVDPEAQYVYHGGNFHGDYISFEMDKLKIAVTKMTMLAERQLNYLFHNRINDDILPPFVNLGVLGLNYGLQAAQFTATSTTAECQTLSNPMYIHSIPNNNDNQDIVSMGANAALMAKTVIENGYQVMAIHFMALVQAVDYLKLQPRMAEKTRAVYDEIRAFFPVFTDDTPKYREIETMITYLKSSGKRI
modifications: Tannerella forsythensis ATCC 43037; DOMAIN (4)...(493): Phenylalanine and histidine ammonia-lyase
B2: SEQ ID NO:236: polypeptide encoded by SEQ ID NO:235, initially isolated from Pseudomonas fluorescens PfO-1 (protein)
chain: MITIRGEGLTIAQIAAVARGAPVRMTDDEAVLARVRASRQRIVEALESGQQIYGVTTLYGGMADRVVPADRLEALQRVSLWHHKVGAGPRLPVPDVRAAMLLRANSLLKGASGVRVELVERYVAFLNAGATPHVYQRGSIGASGDLSPLAYIGAAVIGLDRAWLVDLGEETLDCLTVLRRLGLEPMILQPKEGLALCNGTAASTGVAANCIERAFALTALALGTHALYFQALDATTQSFEPFVHALKPHPGQVWTAREMAALLDGSGLVRSEAAGDRAHRRGGLIQDRYSLRCMPQFVGPIVDGLAEAARQIEIEANSANDNPLIDPETGEVFHTGNFLAEYTAVAMDRLRYHLGMLAKHLDTQIALLVAPEFSRGLSPSLAGNLEPGLNVGLKSLQISCNSLMPLLTFYGQSMADRFPTHAEQFNQNINSQAMNGANLARDSVEVLAHFMANALVFAVQAVELRAWLVAGTYDASEVLSPATRPLYAAARAAAAGPPGPHRPLVWNDTDGFLEDKVRGVMSSILEGGAVPEAVAPVRERLRAHRG
modifications: Obtained from environmental sample; DOMAIN (1)...(492): Phenylalanine and histidine ammonia-lyase; SITE (140)...(156): Phenylalanine and histidine ammonia-lyases signature. Prosite id = PS00488; SITE (201)...(204): N-glycosylation site. Prosite id = PS00001; SITE (514)...(517): N-glycosylat

How the values were obtained:
DH5α host = assay: Ammonia selection (growth with amino acid substrate, host + vector); format: cell-based; conditions: substrate tested
From the text: (§1) An exemplary activity-based discovery protocol comprises use of an ammonia selection using α-methylPhe to screen environmental libraries. […] A phenylalanine selection screen was also implemented to screen libraries, e.g., environmental libraries—which yielded, inter alia, chorismate mutases (CM), which complement a PheA mutation in the auxotroph screening host. An adamantyl phosphonate, an inhibitor of CM activity, also was used to determine whether can minimize background CM activity in this selection/screening protocol.

chorismate mutases (CM) = assay: Phenylalanine selection screen: suppression of background chorismate mutase activity; format: cell-based; conditions: PheA auxotroph screening host
From the text: as §1

[1] = Activity assignment of exemplary polypeptides (Table 1, assays of Examples 1, 2 and 3); format: biochemical; conditions: Table 1 (FIG. 8)
From the text: Table 1, presented as FIG. 8, details an exemplary activity determined for each exemplary polypeptide of the invention (and, also notes one exemplary nucleic acid of the invention that encodes the exemplary polypeptide; as determined by the assays described in Examples 1, 2 and 3, below. Table 1 also sets forth the source organism from which the polynucleotide was isolated (where “unknown” means that the source was an environmental sample), the GenBank accession number of the top BLAST hit, the organism from which the top BLAST hit was isolated, the percent sequence identity between the polypeptide of the invention and the top BLAST hit, the activity assigned to the top BLAST hit, and notes for that particular polynucleotide/polypeptide entry. […]
HAL enzyme activity can be determined as described in Baedeker & Schulz (Eur. J. Biochem 2002, 269, 1790-1797), wherein enzyme activity was determined as the rate of urocanate formation, measured spectrophotometrically at 277 nm. […] The reaction was started by adding 200 μL of 0.5 M histidine solution and then monitored for approximately 5 minutes.
In one aspect, PAL enzyme activity can be determined as described in Rother & Retey (Eur. J. Biochem, 2002, 269, 3065-3075), by following the formation of E-cinnamate spectrophotometrically at 30° C. at 290 nm. […] Kinetic constants were determined using a double reciprocal plot. […]

| Molecule | background growth with negative control (host+empty vector) (DH5α host) | also measured |
| --- | --- | --- |
| N[C@@H](Cc1ccccc1Br)C(=O)O [2-BromoPhe, 2-Bromo-L-phenylalanine] | background growth | – |
| N[C@@H](Cc1ccccc1Cl)C(=O)O [2-ChloroPhe, 2-Chloro-L-phenylalanine] | background growth | – |
| N[C@@H](Cc1ccccc1)C(=O)O [Phe, phenylalanine] | background growth | – |
| C[C@](N)(Cc1ccccc1)C(=O)O [α-methylPhe, α-methylphenylalanine] | no background growth | – |
| adamantyl phosphonate | – | inhibition of background CM activity in selection/screening protocol (chorismate mutases (CM)): lack of potency |
| B1 | – | exemplary activity determined for the polypeptide [1]: TAL and PAL activity |
| B2 | – | exemplary activity determined for the polypeptide [1]: esterase activity |

— US9150845B2, “Lyase enzymes, nucleic acids encoding them and methods for making and using them” (BASF ENZYMES LLC, priority 2005, dated 2015)
